# In PubChem BioAssay AID624124 (The Scripps Research Institute Molecular Screening Center, 2012):
# Target: Tyrosine-protein kinase ABL1 (Homo sapiens) + Ras and Rab interactor 1 (Homo sapiens) (UniProt P00519+Q13671)
# Experiment: inhibitors of Rin1-Abl protein interaction, late-stage follow-up, biochemical, TR-FRET, round 1 (AID 624124)
# Conditions: TR-FRET Rin1-Abl binding assay
# Tyrosine-protein kinase ABL1 (Homo sapiens) + Ras and Rab interactor 1 (Homo sapiens), sequence (P00519 whole entry, looked up): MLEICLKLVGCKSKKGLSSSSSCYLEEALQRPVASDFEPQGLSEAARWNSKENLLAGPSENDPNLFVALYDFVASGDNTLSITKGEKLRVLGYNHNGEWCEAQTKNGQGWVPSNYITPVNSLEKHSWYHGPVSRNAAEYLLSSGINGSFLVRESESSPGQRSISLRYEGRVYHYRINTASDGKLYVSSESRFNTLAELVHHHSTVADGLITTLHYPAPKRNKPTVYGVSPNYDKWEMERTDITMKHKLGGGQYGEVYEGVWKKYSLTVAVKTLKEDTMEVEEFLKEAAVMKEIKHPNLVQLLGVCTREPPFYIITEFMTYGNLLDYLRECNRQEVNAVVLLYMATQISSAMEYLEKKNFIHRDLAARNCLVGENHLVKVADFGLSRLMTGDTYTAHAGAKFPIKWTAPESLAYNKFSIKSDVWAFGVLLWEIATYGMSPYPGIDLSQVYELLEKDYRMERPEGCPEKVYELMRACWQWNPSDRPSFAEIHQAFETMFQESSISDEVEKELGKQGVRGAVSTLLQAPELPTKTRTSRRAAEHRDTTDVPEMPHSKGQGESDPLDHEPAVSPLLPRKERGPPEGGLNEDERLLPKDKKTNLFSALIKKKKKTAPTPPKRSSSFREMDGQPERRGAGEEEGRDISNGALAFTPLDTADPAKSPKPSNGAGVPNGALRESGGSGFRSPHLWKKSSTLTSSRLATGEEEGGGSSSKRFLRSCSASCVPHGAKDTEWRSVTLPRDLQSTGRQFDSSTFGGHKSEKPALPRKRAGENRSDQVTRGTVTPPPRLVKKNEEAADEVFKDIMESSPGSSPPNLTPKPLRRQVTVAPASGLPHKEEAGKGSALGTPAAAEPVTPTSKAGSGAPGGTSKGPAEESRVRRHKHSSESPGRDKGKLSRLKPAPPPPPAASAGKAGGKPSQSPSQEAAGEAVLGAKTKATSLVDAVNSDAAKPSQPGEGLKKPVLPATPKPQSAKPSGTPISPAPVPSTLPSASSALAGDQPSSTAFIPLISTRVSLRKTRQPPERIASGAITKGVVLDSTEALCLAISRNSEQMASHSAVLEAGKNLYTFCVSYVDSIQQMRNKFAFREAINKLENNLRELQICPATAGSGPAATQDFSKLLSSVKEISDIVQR
# Tyrosine-protein kinase ABL1 (Homo sapiens) + Ras and Rab interactor 1 (Homo sapiens), sequence (Q13671 whole entry, looked up): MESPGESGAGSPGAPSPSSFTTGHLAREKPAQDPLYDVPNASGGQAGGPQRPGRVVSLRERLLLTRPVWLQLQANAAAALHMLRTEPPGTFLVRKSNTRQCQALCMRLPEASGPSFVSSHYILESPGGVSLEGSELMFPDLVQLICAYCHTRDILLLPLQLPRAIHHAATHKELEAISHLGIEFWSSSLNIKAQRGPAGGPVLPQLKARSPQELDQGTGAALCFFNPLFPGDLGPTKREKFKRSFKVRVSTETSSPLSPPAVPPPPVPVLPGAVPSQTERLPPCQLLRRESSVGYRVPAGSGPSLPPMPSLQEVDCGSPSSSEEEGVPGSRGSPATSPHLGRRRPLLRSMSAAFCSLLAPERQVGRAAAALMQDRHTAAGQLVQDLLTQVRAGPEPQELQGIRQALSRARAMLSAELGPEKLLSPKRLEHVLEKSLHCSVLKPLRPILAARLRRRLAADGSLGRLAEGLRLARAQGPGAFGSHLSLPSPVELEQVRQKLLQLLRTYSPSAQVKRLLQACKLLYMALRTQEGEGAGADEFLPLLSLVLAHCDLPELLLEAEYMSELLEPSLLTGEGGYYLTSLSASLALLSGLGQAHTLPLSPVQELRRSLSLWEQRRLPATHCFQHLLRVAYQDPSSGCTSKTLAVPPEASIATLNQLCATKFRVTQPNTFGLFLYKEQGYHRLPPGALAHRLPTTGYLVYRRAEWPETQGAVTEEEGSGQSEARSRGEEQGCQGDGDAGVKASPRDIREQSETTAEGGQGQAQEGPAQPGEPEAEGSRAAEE
row,IC50 [nM],Compound
1,1060,CN(C(=O)c1ccc(NC(=O)Cc2ccc(NC(=O)C3CCN(C(=O)c4ccc(F)cc4)CC3)cc2)cc1)C1CC1
2,3670,COc1ccc(C(=O)N2CCC(C(=O)Nc3ccc(CC(=O)Nc4ccc(C(=O)N(C)C5CC5)cc4)cc3)CC2)cc1
3,1350,CN(C(=O)c1ccc(NC(=O)Cc2ccc(NC(=O)C3CCN(C(=O)c4cccc(F)c4)CC3)cc2)cc1)C1CC1
4,620,CN(C(=O)c1ccc(NC(=O)Cc2ccc(NC(=O)C3CCN(C(=O)c4ccccc4)CC3)cc2)cc1)C1CC1
